Laboratory results as given in article PMC5814735, “Lithium‐Catalyzed Thiol Alkylation with Tertiary and Secondary Alcohols: Synthesis of 3‐Sulfanyl‐Oxetanes as Bioisosteres” (Chemistry (Weinheim an Der Bergstrasse, Germany), 2017).

Experiments:
[1] = eLogD, distribution coefficient (LogD) measured by HPLC; assay type: physicochemical
Procedure: (§1) In the context of drug discovery, the distribution coefficient of a compound strongly affects how effectively the drug can reach its intended target, as well as efficacy and pharmacokinetic properties. […] To understand the effect of oxetane sulfides on this key parameter, LogD was measured for compounds 21, 2 d, and 17 d. Replacing the thioester functionality with the oxetane sulfide had the positive effect of lowering the LogD by approximately 1 Log unit (Figure 2).
(§2) Figure 2 Comparison of physicochemical parameters. eLogD=distribution coefficient (LogD) measured by HPLC. HLM=Clearance in liver microsomes; RRCK=Cell membrane permeability. TEXT PRINTED IN THE PICTURE: 21: eLogD 4.7 | 2d: eLogD 3.8 | 17d: eLogD 2.1 | 20: HLM: 7.0 μL/min/mg; RRCK: 0.1 10^-6 cm/s | 22: HLM: 7.0 μL/min/mg; RRCK: 1.3 10^-6 cm/s DOUBTS OF THE COPYIST ABOUT THIS PICTURE: 2d, eLogD: 3.8 or 3.6 (small print) / 22, RRCK: 1.3 or 1.5 or 1.8 (small print) / 20 and 22, RRCK: exponent -6 is printed very small and could be -5 or -8

[2] = HLM, clearance in liver microsomes; assay type: in vitro ADME, human; details: for clearance profile by human liver microsomes, comparison: 20 compared with 22, in words; for microsomal CLint: human, human liver microsomes
Procedure: as §1, §2

[3] = test system: RRCK; assay: RRCK cell membrane permeability; assay type: in vitro ADME; details: 20 compared with methane analogue 22, in words
Procedure: as §1, §2

[4] = RRCK cell membrane permeability; assay type: in vitro ADME; details: dog, MDCK
Procedure: as §1, §2

SMILES | chromatographic logD [1] | melting point | clearance profile by human liver microsomes, comparison [2] | microsomal CLint [2] | Papp [4] | cell permeability compared with analogue [3]
COc1ccc(SC2(c3ccc(OC)cc3)COC2)cc1 [2d] | 3.8 | 113 to 116 °C |  |  |  | 
c1ccc(SC2(c3ccccc3)CCC2)cc1 [13c] |  | 46 to 48 °C |  |  |  | 
COc1ccc(C2(S(=O)(=O)c3ccc(OC)cc3)COC2)cc1 [17d] | 2.1 | 158 to 160 °C |  |  |  | 
COc1ccc(C2(SCC(N)C(=O)O)COC2)cc1 (stereo not shown) [compound 20] |  |  | determined to be the same | 7 µL/min/mg | 0.1 ×10⁻⁶ cm/s | slightly lower cell permeability than the corresponding methane analogue 22

Continued, in another order:

chromatographic logD [1] | melting point | clearance profile by human liver microsomes, comparison [2] | microsomal CLint [2] | Papp [4] | SMILES | cell permeability compared with analogue [3]
4.7 |  |  |  |  | COc1ccc(SC(=O)c2ccc(OC)cc2)cc1 [compound 21] | 
 |  | determined to be the same | 7 µL/min/mg | 1.3 ×10⁻⁶ cm/s | COc1ccc(CSCC(N)C(=O)O)cc1 (stereo not shown) [compound 22] | 
